The numbers were not newly measured in patent US5830503A (Andrx Pharmaceuticals, Inc., priority 1996, dated 1998), which cites them from elsewhere.

For this data set the following is noted: as compared to intravenous administration; first pass effect.

Regarding `COc1ccc([C@@H]2Sc3ccccc3N(CCN(C)C)C(=O)[C@@H]2OC(C)=O)cc1` [diltiazem], the absolute bioavailability result is “about 40%”.
